# Measured values: paper PMC8831520, “Small molecule SWELL1 complex induction improves glycemic control and nonalcoholic fatty liver disease in murine Type 2 diabetes” (Nature Communications, 2022)
# What was measured:
# [1] = test system: T1, SWELL1 protein in 3T3-F442A adipocytes; test: SWELL1 protein western blot in adipocytes; type: cell-based, murine; details: 10 and 1 μM, 4 days, then 6 h serum starving
# T1 construct: host or cells: 3T3-F442A preadipocytes and differentiated adipocytes (wild type)
# Description: (§1) In the case of 3T3-F442A adipocytes, the WT and KO cells were treated with either vehicle (DMSO), 1 or 10 µM SN-40X (after 7–11 days of differentiation) for 96 h and then stimulated with 0 and 10 nM insulin/serum-containing media with vehicle (DMSO) or SN-40X for 15 min for SWELL1 detection. […] To simulate glucolipotoxicity, 8 mM sodium palmitate was dissolved in 18.4% fatty-acid free BSA at 37 °C in DMEM medium with 25 mM glucose to obtain a conjugation ratio of 1:3 palmitate:BSA[80].
# Adipocytes were washed twice in ice-cold phosphate buffer saline and lysed in RIPA buffer (150 mM NaCl, 20 mM HEPES, 1% NP-40, 5 mM EDTA, pH 7.4) with proteinase/phosphatase inhibitors (Roche). The cell lysate was further sonicated in 10 s cycle intervals 2–3 times and centrifuged at 18,407×g for 30 min at 4 °C and repeated one more time to remove the excess fat. The supernatant was collected and further estimated for protein concentration using a DC protein assay kit (Bio-Rad). Fat and liver tissues were homogenized and suspended in RIPA buffer with inhibitors and further processed in a similar fashion as described above. HUVECs were also prepared in a similar fashion except the lysates were spun only once to remove the cells debris to obtain the clear supernatant. For islets, either human or mouse islets were washed twice with phosphate buffer saline (PBS) and lysed using RIPA buffer containing protease and phosphatase inhibitors. The lysate was further clarified by freezing in liquid nitrogen for about 10 s for three cycles. The supernatant was collected from the whole lysate centrifuged at 16,260×g for 20 min at 4 °C. […] For soleus muscle, the tissue was homogenized in a Bullet Blender homogenizer (Speed-9, Time-3 mins) in 8 volumes of ice-cold muscle homogenization buffer (50 mM Tris, 25 mM NaCl, 0.2% Nonidet P-40, 5 mM EGTA, 2.5 mM EDTA, 20 mM NaF, 20 mM Na4P2O7·10H2O, 2 mM Na3VO4, pH 7.4) supplemented with protease/phosphatase inhibitor (Roche). The homogenized lysate was centrifuged two times at 18,500×g for 20 min at 4 °C and supernatant was collected for protein estimation. Protein samples were further prepared by boiling in 2X or 4X Laemmli buffer. Approximately 10–60 µg of total protein was loaded in 4–15% gradient gel (Bio-Rad) for separation and protein transfer was carried out onto the PVDF membranes (Bio-Rad). Membranes were blocked in 5% BSA (or 5% milk for SWELL1) in TBST buffer (0.2 M Tris, 1.37 M NaCl, 0.2% Tween-20, pH 7.4) for 1 h and incubated with appropriate primary antibodies (5% BSA or milk) overnight at 4 °C. […] The images were further analyzed for band intensities using ImageJ software. […]
# [2] = test system: T1, SWELL1 protein in 3T3-F442A adipocytes; test: SWELL1 protein under glucolipotoxic stress (palmitate + glucose); type: cell-based, murine; details: 10 µM 96 h pretreatment, then 1 mM palmitate + 25 mM glucose 16 h
# Description: as §1
# [3] = target: T2, ICl,SWELL (SWELL1-LRRC8 channel) in HEK-293 cells (Homo sapiens, UniProt Q8IWT6); test: ICl,SWELL inhibition after hypotonic activation (open channel), patch-clamp; type: cell-based; details: HEK-293 cells; for IC50: hypotonic (210 mOsm) stimulation, outward current, compound applied at 30 pA/pF, read-out: IC50 for ICl,SWELL inhibition
# T2 construct: applied when the endogenous HEK-293 cell ICl,SWELL current density reached 30 pA/pF; endogenous in cells; host or cells: HEK-293 (ATCC, #CRL-1573)
# T2 sequence (Q8IWT6 1-810): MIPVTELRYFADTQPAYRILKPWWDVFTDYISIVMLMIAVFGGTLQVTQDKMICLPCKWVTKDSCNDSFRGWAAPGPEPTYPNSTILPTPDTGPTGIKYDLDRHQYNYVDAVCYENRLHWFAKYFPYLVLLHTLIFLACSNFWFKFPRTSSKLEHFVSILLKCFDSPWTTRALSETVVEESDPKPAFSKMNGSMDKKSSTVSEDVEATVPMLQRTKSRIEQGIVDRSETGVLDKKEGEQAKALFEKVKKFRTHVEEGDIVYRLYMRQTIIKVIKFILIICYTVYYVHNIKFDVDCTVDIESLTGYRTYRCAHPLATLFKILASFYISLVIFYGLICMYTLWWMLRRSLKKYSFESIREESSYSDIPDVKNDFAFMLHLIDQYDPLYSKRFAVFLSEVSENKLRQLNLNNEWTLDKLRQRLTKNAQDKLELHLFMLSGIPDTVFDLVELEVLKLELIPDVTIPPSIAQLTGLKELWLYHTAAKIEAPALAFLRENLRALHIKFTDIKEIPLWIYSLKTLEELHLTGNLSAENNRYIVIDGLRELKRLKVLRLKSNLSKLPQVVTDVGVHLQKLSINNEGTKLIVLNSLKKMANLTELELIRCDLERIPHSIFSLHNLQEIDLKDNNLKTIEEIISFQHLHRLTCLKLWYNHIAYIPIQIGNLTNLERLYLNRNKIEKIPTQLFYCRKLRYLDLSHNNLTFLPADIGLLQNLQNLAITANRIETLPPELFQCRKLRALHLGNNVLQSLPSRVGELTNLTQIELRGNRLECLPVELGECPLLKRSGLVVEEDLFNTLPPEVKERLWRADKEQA
# Description: Patch-clamp recordings of β-cells, 3T3-F442A adipocytes, and mature human adipocytes were performed as described previously[24],[28]. Briefly, all patch-clamp experiments were conducted at room temperature using either an Axopatch 200B amplifier or a MultiClamp 700B amplifier paired to a Digidata 1550 digitizer. Data were acquired using pClamp 10.4 software. For hypotonic swelling, extracellular solution consisted of the following (in mM): 90 NaCl, 2 CsCl, 1 MgCl2, 1 CaCl2, 10 HEPES, 10 mannitol, pH 7.4 with NaOH (210 mOsm/kg). The isotonic extracellular solution consisted of the same composition above but with 110 mM instead of 10 mM mannitol (300 mOsm/kg). The swell-activated current was elicited by perfusing cells with a hypotonic solution (210 mOsm/kg). […] For perforated-patch recordings in isolated human adipocytes, the intracellular solution was as above but without ATP and GTP, and contained 360 μg/ml Amphotericin B (Sigma). The holding potential was 0 mV. Voltage ramps from −100 to +100 mV (at 0.4 mV/ms) were applied every 4 s. The sampling interval was 100 μs and filtered at 10 kHz. For perforated-patch recordings, cells with a membrane resistance below 1 GΩ or access resistance above 20 MΩ were discarded. […]
# [4] = test system: T2D and non-T2D mice; test: Metabolic phenotyping: fasting glucose, GTT, ITT; details: compared to Inactive 1
# Description: All compounds were dissolved in Kolliphor® EL (Sigma, #C5135).
# (§2) Mice were fasted for 6 h prior to glucose tolerance tests (GTT). Baseline glucose levels at 0 min timepoint (fasting glucose, FG) were measured from a blood sample collected from tail snipping using glucometer (Bayer Healthcare LLC). Either 1 or 0.75 g D-Glucose/kg body weight were injected (i.p.) for lean or HFD mice, respectively and glucose levels were measured at 5 or 7, 15, 30, 60, 90, and 120 min timepoints after injection. For insulin tolerance tests (ITTs), the mice were fasted for 4 h. Similar to GTTs, the baseline blood glucose levels were measured at 0 min timepoint and 15, 30, 60, 90, and 120 min timepoints post-injection (i.p.) of insulin (HumulinR, 1 U/kg bodyweight for lean mice or 1.25 U/kg body weight for HFD mice). […] The collected plasma was then measured for insulin content by using Ultra-Sensitive Mouse Insulin ELISA Kit (Crystal Chem, #90080). All mouse studies were performed in a blinded fashion.
# [5] = target: T3, R103E-SWELL1 expressing HEK-293 cells (R103E O/E) (Homo sapiens, UniProt Q8IWT6, R103E); test: ICl,SWELL inhibition in SWELL1-R103E overexpressing cells, patch-clamp; type: cell-based; details: R103E-SWELL1 overexpressing HEK-293 cells, compound applied at maximum current density; read-out: IC50 for ICl,SWELL inhibition, R103E O/E
# T3 construct: P2A:EGFP (C); host or cells: HEK-293, Lipofectamine 2000, co-transfected with CMV-Cre; EGFP+ cells recorded
# T3 sequence (Q8IWT6 whole entry R103E): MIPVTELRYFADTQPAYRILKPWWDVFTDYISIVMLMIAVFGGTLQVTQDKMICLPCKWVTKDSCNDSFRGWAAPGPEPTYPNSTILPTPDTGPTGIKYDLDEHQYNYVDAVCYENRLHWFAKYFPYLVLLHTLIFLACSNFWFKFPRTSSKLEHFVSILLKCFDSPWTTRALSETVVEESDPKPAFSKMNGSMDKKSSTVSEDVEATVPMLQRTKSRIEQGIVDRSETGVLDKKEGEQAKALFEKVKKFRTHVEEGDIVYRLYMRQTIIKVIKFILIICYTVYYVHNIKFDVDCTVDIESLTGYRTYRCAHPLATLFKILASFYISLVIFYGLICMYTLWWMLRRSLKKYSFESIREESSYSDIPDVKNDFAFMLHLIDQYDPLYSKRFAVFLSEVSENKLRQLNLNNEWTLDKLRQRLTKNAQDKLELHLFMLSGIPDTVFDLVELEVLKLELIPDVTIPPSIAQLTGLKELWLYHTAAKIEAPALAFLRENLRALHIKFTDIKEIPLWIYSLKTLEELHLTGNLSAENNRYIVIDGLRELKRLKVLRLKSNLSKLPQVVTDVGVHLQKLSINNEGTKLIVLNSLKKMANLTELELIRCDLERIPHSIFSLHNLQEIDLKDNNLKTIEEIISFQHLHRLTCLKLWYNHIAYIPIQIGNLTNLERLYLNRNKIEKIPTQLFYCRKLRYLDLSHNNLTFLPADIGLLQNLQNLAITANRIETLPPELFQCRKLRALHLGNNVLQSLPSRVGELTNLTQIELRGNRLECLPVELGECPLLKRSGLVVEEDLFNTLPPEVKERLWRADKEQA
# Source text: See also Fig. 6 for a schematic representation. […] For SWELL1-R103E overexpression experiments, HEK-293 cells were transfected with either control Cre plasmid (CMV-Cre, McDonnell Genome Institute in Washington University in St. Louis) or Cre plus R103E-GFP (CAG-LoxP-stop-LoxP-SWELL1-R103E/3XFlag:P2A:EGFP, Vector Biolabs) plasmid using Lipofectamine 2000 as per the manufacturer’s protocol. SWELL1-R103E expressing HEK-293 cells were identified by EGFP + fluorescence.
# [6] = test system: pancreatic islets of T2D mice; test: Insulin secretion of treated T2D mice (serum insulin, islet perifusion GSIS); type: in vivo, mouse; details: islets of T2D KKAy mice, compared to Inactive 1
# Description: as §2
# [7] = target: Mus musculus SWELL1 (LRRC8a, leucine-rich repeat-containing protein 8a) (Mus musculus); test: cryo-EM structure; SWELL1 in MSP1E3D1 lipid nanodiscs (2:1:1 DOPE:POPC:POPS), 1 mg/mL SWELL1-MSP1E3D1 with 100 µM SN-407; 20 mM HEPES, 150 mM KCl, pH 7.4; C6 refinement, then symmetry expansion and relaxation
# [8] = 8 weeks HFD mice, 5 mg/kg/day × 4 days
compound,measurement,setting,value
"O=C(O)CCCOc1cc2c(c(Cl)c1Cl)C(=O)C(C1CCCC1)C2 (stereo not shown) [Inactive 2, 4-((6,7-dichloro-2-cyclopentyl-1-oxo-2,3-dihydro-1H-inden-5-yl)oxy)butanoic acid]",SWELL1 protein level relative to vehicle-treated controls,[1],did not significantly increase
same,prevention of palmitate/glucose-induced reduction of SWELL1 protein,[2],not
same,IC50,[3],10.6 µM
"CCCCC1(C2CCCC2)Cc2cc(OCCCB(O)O)c(Cl)c(Cl)c2C1=O (stereo not shown) [Inactive 3, (3-((2-butyl-6,7-dichloro-2-cyclopentyl-1-oxo-2,3-dihydro-1H-inden-5-yl)oxy)propyl)boronic acid]",IC50,[3],18.3 µM
"CCCCC1(C2CCCC2)Cc2cc(OCCCCC(=O)O)c(Cl)c(Cl)c2C1=O (stereo not shown) [SN-403, 5-((2-butyl-6,7-dichloro-2-cyclopentyl-1-oxo-2,3-dihydro-1H-inden-5-yl)oxy)pentanoic acid]","ICl,SWELL inhibitory activity compared to SN-401",[3],"increased ICl,SWELL inhibitory activity"
same,fasting blood glucose,[4]; [8],significantly reduced
same,glucose tolerance,[4]; [8],improved
"CCCCC1(C2CCCC2)Cc2cc(OCCCCCCC(=O)O)c(Cl)c(Cl)c2C1=O (stereo not shown) [SN-407, 7-((2-butyl-6,7-dichloro-2-cyclopentyl-1-oxo-2,3-dihydro-1H-inden-5-yl)oxy)heptanoic acid]",IC50,[5],4.2 µM
same,GSIS,[6],increased
same,"ICl,SWELL inhibitory activity compared to SN-401",[3],"increased ICl,SWELL inhibitory activity"
same,IC50,[3],1.6 µM
same,glucose tolerance (GTT AUC),"[4]; T2D KKAy mice, 5 mg/kg i.p. 4 days",improved
"Mus musculus SWELL1 (LRRC8a, leucine-rich repeat-containing protein 8a) (natural protein)",stoichiometry N,[7],6
